Reference: ChEMBL document CHEMBL1150266, “Design and synthesis of conformationally constrained glucagon-like peptide-1 derivatives with increased plasma stability and prolonged in vivo activity” (J Med Chem, 2008)

How the values were obtained:
[1] = biological target: T1, Glucagon-like peptide 1 receptor (Homo sapiens, UniProt P43220); test: Displacement of [125I]GLP1 from human GLP1R expressed in CHOK1 cells; format: cell-based, CHO-K1
Plasma = test: (§1) Stability in human plasma at 1000 ng/mL at 37 degC; format: ADME, cell-free
[2] = Stability in human plasma at 1000 ng/mL at 37 degC after 5 hrs; format: ADME, cell-free; details: read-out: Stability
[3] = biological target: T1, Glucagon-like peptide 1 receptor; test: Agonist activity at human GLP1R expressed in CHO cells assessed as increase in cAMP level by cAMP-response element/luciferase activation assay; format: functional, cell-based
[4] = as §1; format: ADME, cell-free

T1 sequence (P43220 whole entry): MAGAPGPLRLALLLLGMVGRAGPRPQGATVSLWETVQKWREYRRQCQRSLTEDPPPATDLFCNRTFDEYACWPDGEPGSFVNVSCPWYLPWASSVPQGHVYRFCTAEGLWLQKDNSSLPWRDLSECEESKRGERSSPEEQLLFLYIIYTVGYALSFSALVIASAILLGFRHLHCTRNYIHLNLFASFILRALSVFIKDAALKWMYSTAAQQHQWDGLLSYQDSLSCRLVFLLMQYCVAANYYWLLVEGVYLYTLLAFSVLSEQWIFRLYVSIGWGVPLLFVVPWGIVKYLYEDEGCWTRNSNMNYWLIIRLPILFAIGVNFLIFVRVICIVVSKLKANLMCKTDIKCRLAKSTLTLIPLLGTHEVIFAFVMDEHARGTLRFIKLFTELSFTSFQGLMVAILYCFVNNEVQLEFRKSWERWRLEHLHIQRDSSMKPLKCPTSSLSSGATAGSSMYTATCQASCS

half-life at 1000 ng/mL [4]	Compound	IC50 [1]	Stability (Plasma)	remaining at 5 h, 1000 ng/mL [2]	EC50 [3]
	CC[C@H](C)[C@H](NC(=O)[C@H](Cc1ccccc1)NC(=O)[C@H](CCC(=O)O)NC(=O)[C@@H]1CCCCNC(=O)CC[C@H](NC(=O)[C@H](CCC(=O)O)NC(=O)[C@H](CC(C)C)NC(=O)[C@H](Cc2ccc(O)cc2)NC(=O)[C@H](CO)NC(=O)[C@H](CO)NC(=O)[C@@H](NC(=O)[C@H](CC(=O)O)NC(=O)[C@H](CO)NC(=O)[C@@H](NC(=O)[C@H](Cc2ccccc2)NC(=O)[C@@H](NC(=O)CNC(=O)[C@H](CCC(=O)O)NC(=O)CNC(=O)[C@@H](N)Cc2c[nH]cn2)[C@@H](C)O)[C@@H](C)O)C(C)C)C(=O)N[C@@H](CCC(N)=O)C(=O)N[C@@H](C)C(=O)N[C@@H](C)C(=O)N1)C(=O)N[C@@H](C)C(=O)N[C@@H](Cc1c[nH]c2ccccc12)C(=O)N[C@@H](CC(C)C)C(=O)N[C@H](C(=O)N[C@@H](CCCCN)C(=O)NCC(=O)N[C@@H](CCCNC(=N)N)C(=O)NCC(N)=O)C(C)C	2.1 nM	Stable	75%	0.01 nM
5 h	CC[C@H](C)[C@H](NC(=O)[C@H](Cc1ccccc1)NC(=O)[C@H](CCC(=O)O)NC(=O)[C@H](CCCCN)NC(=O)[C@H](C)NC(=O)[C@H](C)NC(=O)[C@H](CCC(N)=O)NC(=O)CNC(=O)[C@H](CCC(=O)O)NC(=O)[C@H](CC(C)C)NC(=O)[C@H](Cc1ccc(O)cc1)NC(=O)[C@H](CO)NC(=O)[C@H](CO)NC(=O)[C@@H](NC(=O)[C@H](CC(=O)O)NC(=O)[C@H](CO)NC(=O)[C@@H](NC(=O)[C@H](Cc1ccccc1)NC(=O)[C@@H](NC(=O)CNC(=O)[C@H](CCC(=O)O)NC(=O)CNC(=O)[C@@H](N)Cc1cnc[nH]1)[C@@H](C)O)[C@@H](C)O)C(C)C)C(=O)N[C@@H](C)C(=O)N[C@@H](Cc1c[nH]c2ccccc12)C(=O)N[C@@H](CC(C)C)C(=O)N[C@H](C(=O)N[C@@H](CCCCN)C(=O)NCC(=O)N[C@@H](CCCNC(=N)N)C(=O)NCC(=O)O)C(C)C				
0.5 h	CC[C@H](C)[C@H](NC(=O)[C@H](Cc1ccccc1)NC(=O)[C@H](CCC(=O)O)NC(=O)[C@H](CCCCN)NC(=O)[C@H](C)NC(=O)[C@H](C)NC(=O)[C@H](CCC(N)=O)NC(=O)CNC(=O)[C@H](CCC(=O)O)NC(=O)[C@H](CC(C)C)NC(=O)[C@H](Cc1ccc(O)cc1)NC(=O)[C@H](CO)NC(=O)[C@H](CO)NC(=O)[C@@H](NC(=O)[C@H](CC(=O)O)NC(=O)[C@H](CO)NC(=O)[C@@H](NC(=O)[C@H](Cc1ccccc1)NC(=O)[C@@H](NC(=O)CNC(=O)[C@H](CCC(=O)O)NC(=O)[C@H](C)NC(=O)[C@@H](N)Cc1cnc[nH]1)[C@@H](C)O)[C@@H](C)O)C(C)C)C(=O)N[C@@H](C)C(=O)N[C@@H](Cc1c[nH]c2ccccc12)C(=O)N[C@@H](CC(C)C)C(=O)N[C@H](C(=O)N[C@@H](CCCCN)C(=O)NCC(=O)N[C@@H](CCCNC(=N)N)C(=O)NCC(N)=O)C(C)C				
